{
  "source": "paper PMC10044449",
  "about": "(Xenobiotica; the fate of foreign compounds in biological …, 2022)",
  "key": {"[1]": {"test": "Liver microsomal metabolic stability"}, "[2]": {"test": "Hepatocyte metabolic stability", "details": "ICR/CD-1, mouse, hepatocytes"}, "[3]": {"test": "UHPLC/MS metabolite characterisation, liver microsome incubations", "type": "in vitro ADME", "details": "5 minute mouse liver microsome incubation"}, "[4]": {"details": "mice received ca. 0.4 mg/kg; ref Bhatt et al. 2020; cited from earlier work"}, "Plasma protein binding [5]": {"test": "Plasma protein binding", "type": "in vitro ADME", "details": "rat plasma"}, "[6]": {"test": "Liver microsomal metabolic stability", "type": "in vitro ADME, mouse"}, "[7]": {"test": "Efficacy in a mouse model", "type": "in vivo", "details": "corresponds to ca. 0.4 mg/kg in mice"}, "Plasma protein binding [8]": {"test": "Plasma protein binding", "type": "in vitro ADME", "details": "both, human, pH 7.4, Mean fu (fraction unbound), 37 °C"}, "[9]": {"test": "Hepatocyte metabolic stability", "details": "human, hepatocytes"}, "[10]": {"test": "UHPLC/MS metabolite characterisation, liver microsome incubations", "type": "in vitro ADME", "details": "15 minute human microsome incubation"}, "[11]": {"test": "Hepatocyte metabolic stability", "details": "Sprague Dawley, rat, hepatocytes"}, "[12]": {"test": "UHPLC/MS metabolite characterisation, liver microsome incubations", "type": "in vitro ADME", "details": "5 minute rat liver microsome incubation"}, "Liver microsomal binding [13]": {"test": "Liver microsomal binding", "type": "in vitro ADME", "details": "ICR/CD-1, mouse, liver microsomes, pH 7.4"}, "[14]": {"test": "Prediction of in vivo CLH from in vitro CLint", "type": "in vitro ADME, mouse", "details": "for Predicted in vivo CLH: mouse"}, "[15]": {"test": "Prediction of in vivo CLH from in vitro CLint", "type": "in vitro ADME"}, "Liver microsomal binding [16]": {"test": "Liver microsomal binding", "type": "in vitro ADME", "details": "human, liver microsomes, pH 7.4"}, "Caco-2 cells": {"system": "Caco-2 cells", "test": "Caco-2 bidirectional permeability", "details": "Caco-2, without inhibitor mix"}, "[17]": {"test": "Caco-2 bidirectional permeability", "details": "human, Caco-2, pH 7.4"}, "[18]": {"test": "Liver microsomal metabolic stability", "type": "in vitro ADME, rat"}, "[19]": {"system": "microbial versus mammalian β-glucuronidases", "details": "ref Pellock et al. 2018; cited from earlier work"}, "Liver microsomal binding [20]": {"test": "Liver microsomal binding", "type": "in vitro ADME", "details": "Sprague Dawley, rat, liver microsomes, pH 7.4"}, "human hepatocytes": {"system": "human hepatocytes", "test": "UHPLC/MS metabolite characterisation, hepatocyte incubations", "type": "in vitro ADME", "details": "120 minute human hepatocyte incubation"}, "Plasma protein binding [21]": {"test": "Plasma protein binding", "type": "in vitro ADME", "details": "male, CD-1, mouse, pH 7.4, Mean fu (fraction unbound), 37 °C"}, "[22]": {"test": "Prediction of in vivo CLH from in vitro CLint", "type": "in vitro ADME, rat", "details": "for Predicted in vivo CLH: rat"}, "[23]": {"test": "Mouse pharmacokinetic study", "type": "in vivo, Swiss albino mice", "details": "mice; for AUC(0-t): AUClast"}, "Escherichia coli GUS": {"system": "Escherichia coli GUS", "details": "ref Pellock et al. 2018; cited from earlier work"}, "[24]": {"details": "ICR/CD-1, mouse, liver microsomes, pH 7.4"}, "[25]": {"details": "Sprague Dawley, rat, liver microsomes, pH 7.4"}},
  "note": "“And” between values parts separate entries of the source, which are not always exact repeats. Identical values can stand only once.",
  "data": [
    {"smiles": "COc1ccc2c(c1)[C@]13CCCC[C@@H]1[C@H](C2)N(C)CC3", "note": "[dextromethorphan, reference compound]", "values": [
      {"measurement": "microsomal CLint at 1 μM", "setting": "[1]; human, microsomes, pH 7.4", "result": 44.8, "unit": "µL/min/mg"}
    ]},
    {"smiles": "C1CCc2c(c(N3CCOCC3)nc3sc4c(N5CCNCC5)nnnc4c23)C1", "note": "[UNC10201652, 4-(8-(piperazin-1-yl)-1,2,3,4-tetrahydro-[1,2,3]triazino[4′,5′:4,5]thieno[2,3-c]isoquinolin-5-yl)morpholine]", "values": [
      {"measurement": "half-life at 1 μM", "setting": "[2]", "result": 11.9, "unit": "min"},
      {"measurement": "hepatocyte CLint at 1 μM", "setting": "[2]", "result": 116, "unit": "µL/min/1e6 cells"},
      {"measurement": "Area percentage in sample (% of total drug-related material by MS area)", "setting": "[3]", "result": "ca. 86%"},
      {"measurement": "Stability in control incubation in the absence of NADPH", "setting": "[1]; human liver microsomes, without NADPH, 45 min", "result": "stable"},
      {"measurement": "half-life at 1 μM", "setting": "[1]; human, microsomes, pH 7.4", "result": 28.8, "unit": "min"},
      {"measurement": "microsomal CLint at 1 μM", "setting": "[1]; human, microsomes, pH 7.4", "result": 48.1, "unit": "µL/min/mg"},
      {"measurement": "Efficacy in a mouse model", "setting": "[4]", "result": "good efficacy"},
      {"measurement": "Extent of plasma protein binding", "setting": "Plasma protein binding [5]", "result": 89, "unit": "%"},
      {"measurement": "half-life at 1 μM", "setting": "[6]; [24]", "result": 12, "unit": "min"},
      {"measurement": "microsomal CLint at 1 μM", "setting": "[6]; [24]", "result": 115, "unit": "µL/min/mg"},
      {"measurement": "Stability in control incubation in the absence of NADPH", "setting": "[6]; mouse liver microsomes, without NADPH, 45 min", "result": "stable"},
      {"measurement": "Local gut concentration", "setting": "[7]", "result": "approximately 90 μM"},
      {"measurement": "fraction unbound at 4 h, 2 μM", "setting": "Plasma protein binding [8]", "result": 0.0548},
      {"measurement": "half-life at 1 μM", "setting": "[9]", "result": 66.4, "unit": "min"},
      {"measurement": "hepatocyte CLint at 1 μM", "setting": "[9]", "result": 20.9, "unit": "µL/min/1e6 cells"},
      {"measurement": "Area percentage in sample (% of total drug-related material by MS area)", "setting": "[10]", "result": "ca. 82%"},
      {"measurement": "half-life at 1 μM", "setting": "[11]", "result": 9.89, "unit": "min"},
      {"measurement": "hepatocyte CLint at 1 μM", "setting": "[11]", "result": 140, "unit": "µL/min/1e6 cells"},
      {"measurement": "Area percentage in sample (% of total drug-related material by MS area)", "setting": "[12]", "result": "ca. 92%"},
      {"measurement": "fraction unbound at 4 h, 2 μM", "setting": "Liver microsomal binding [13]", "result": 0.453},
      {"measurement": "Scaled hepatocyte CLint as % of hepatic blood flow", "setting": "[14]; mouse hepatocytes", "result": "> 60 % of hepatic blood flow"},
      {"measurement": "Predicted in vivo CLH", "setting": "[14]; scaled from hepatocyte CLint", "result": 75.9, "unit": "mL/min/kg"},
      {"measurement": "Predicted in vivo CLH", "setting": "[14]; scaled from microsomal CLint", "result": 42.1, "unit": "mL/min/kg"},
      {"measurement": "Predicted CLH as % of hepatic blood flow", "setting": "[15]; human", "result": "approximately 22 % of hepatic blood flow"},
      {"measurement": "Predicted in vivo CLH", "setting": "[15]; human, scaled from hepatocyte CLint", "result": 4.65, "unit": "mL/min/kg"},
      {"measurement": "Predicted in vivo CLH", "setting": "[15]; human, scaled from microsomal CLint", "result": 3.51, "unit": "mL/min/kg"},
      {"measurement": "Predicted CLH in human", "setting": "[15]; overall figure from microsomal and hepatocyte data", "result": 4, "unit": "mL/min/kg"},
      {"measurement": "fraction unbound at 4 h, 2 μM", "setting": "Liver microsomal binding [16]", "result": 0.642},
      {"measurement": "Mean A-B Papp", "setting": "Caco-2 cells; 120 min, pH 7.4", "result": "5.88 cm/s (×10^−6)"},
      {"measurement": "Mean B-A Papp", "setting": "Caco-2 cells; 120 min, pH 7.4", "result": "15.9 cm/s (×10^−6)"},
      {"measurement": "efflux ratio at 120 min, 10 μM", "setting": "[17]", "result": 2.7},
      {"measurement": "half-life at 1 μM", "setting": "[18]; [25]", "result": 7.14, "unit": "min"},
      {"measurement": "microsomal CLint at 1 μM", "setting": "[18]; [25]", "result": 194, "unit": "µL/min/mg"},
      {"measurement": "Stability in control incubation in the absence of NADPH", "setting": "[18]; rat liver microsomes, without NADPH, 45 min", "result": "stable"},
      {"measurement": "Specificity microbial versus mammalian β-glucuronidases", "setting": "[19]", "result": "highly specific inhibitor"},
      {"measurement": "fraction unbound at 4 h, 2 μM", "setting": "Liver microsomal binding [20]", "result": 0.618},
      {"measurement": "Area percentage in sample (% of total drug-related material by MS area)", "setting": "human hepatocytes", "result": "ca. 48%"},
      {"measurement": "fraction unbound at 4 h, 2 μM", "setting": "Plasma protein binding [21]", "result": 0.0648},
      {"measurement": "Scaled hepatocyte CLint as % of hepatic blood flow", "setting": "[22]; rat hepatocytes", "result": "> 60 % of hepatic blood flow"},
      {"measurement": "Predicted in vivo CLH", "setting": "[22]; scaled from hepatocyte CLint", "result": 59.8, "unit": "mL/min/kg"},
      {"measurement": "Predicted in vivo CLH", "setting": "[22]; scaled from microsomal CLint", "result": 43.5, "unit": "mL/min/kg"},
      {"measurement": "AUC(0-inf)", "setting": "[23]; male, Swiss albino, mouse, plasma, iv, 3 mg/kg, AUCINF, IV 3 mg/kg", "result": 154, "unit": "ng·h/mL"},
      {"measurement": "AUC(0-t)", "setting": "[23]; male, Swiss albino, mouse, plasma, iv, 3 mg/kg, IV 3 mg/kg", "result": 137, "unit": "ng·h/mL"},
      {"measurement": "Vd", "setting": "[23]; male, Swiss albino, mouse, plasma, iv, 3 mg/kg, Vss, IV 3 mg/kg", "result": 16.7, "unit": "L/kg"},
      {"measurement": "AUC(0-t)", "setting": "[23]; male, Swiss albino, mouse, plasma, po, 3 mg/kg, PO 3 mg/kg", "result": "~20", "unit": "ng·h/mL"},
      {"measurement": "Cmax", "setting": "[23]; male, Swiss albino, mouse, plasma, po, 3 mg/kg, Cmax, PO 3 mg/kg", "result": 15.2, "unit": "ng/mL"},
      {"measurement": "Tmax", "setting": "[23]; male, Swiss albino, mouse, plasma, po, 3 mg/kg, Tmax, PO 3 mg/kg", "result": 15, "unit": "min"},
      {"measurement": "Tolerability / clinical signs", "setting": "[23]; 3 mg/kg IV and PO, with and without ABT, up to 24 h post dose", "result": "no clinical signs were observed"},
      {"measurement": "Plasma concentration at the 24 h time point", "setting": "[23]; IV 3 mg/kg, 24 h", "result": "not detectable"},
      {"measurement": "Decrease in plasma clearance after ABT", "setting": "[23]; IV 3 mg/kg, ABT versus no ABT", "result": "ca. 2.5 fold"},
      {"measurement": "Increase in Vss after ABT", "setting": "[23]; IV 3 mg/kg, ABT versus no ABT", "result": "ca. 2 fold"},
      {"measurement": "Increase in plasma half-life after ABT", "setting": "[23]; IV 3 mg/kg, ABT versus no ABT", "result": "ca. 6 fold"},
      {"measurement": "CL (plasma clearance)", "setting": "[23]; IV 3 mg/kg, 3 mg/kg", "result": 325.0, "unit": "mL/min/kg"},
      {"measurement": "Vss", "setting": "[23]; IV 3 mg/kg, 3 mg/kg", "result": 16.7, "unit": "L/kg"},
      {"measurement": "Time of Cmax post dose", "setting": "[23]; PO 3 mg/kg", "result": 15, "unit": "min"},
      {"measurement": "F (oral bioavailability, from AUClast)", "setting": "[23]; PO 3 mg/kg + ABT 50 mg/kg 2 h prior", "result": 184, "unit": "%"},
      {"measurement": "Increase in plasma Cmax after ABT", "setting": "[23]; PO 3 mg/kg, ABT versus no ABT", "result": "greater than 10 fold"},
      {"measurement": "F (oral bioavailability, from AUClast)", "setting": "[23]; PO 3 mg/kg, 3 mg/kg", "result": "15% and 15^c %"},
      {"measurement": "IC50", "setting": "Escherichia coli GUS", "result": 117, "unit": "nM"}
    ]},
    {"smiles": "C[C@]12CC[C@@H]3c4ccc(OS(=O)(=O)O)cc4CC[C@H]3[C@@H]1CCC2=O", "note": "[oestrone 3-sulfate, reference compound]", "values": [
      {"measurement": "Efflux ratio", "setting": "Caco-2 cells", "result": 105}
    ]}
  ]
}
